From PMC8829872 (Cancer chemotherapy and pharmacology, 2022)
Like-named read-outs stand apart in the source and are kept apart here.

Tests used:
[1] = Intestinal contribution to oral bioavailability (hepatic and gut contributions calculated from IV PK); type: in vivo, mice; conditions: 10 mg/kg IV
Description: The contribution of gut to oral bioavailability was estimated by calculating the contribution of liver processes to bioavailability from IV data and stripping this contribution from the observed bioavailabilities. Assuming IV drug clearance was restricted to hepatic processes, the predicted bioavailability based solely on liver processes, FH, was calculated from IV PK. […] Fe was derived from the amount of drug measured in urine (Ae) and the total amount of drug administered, see Eq. (7). ClBlood was defined by multiplying the observed plasma clearance (Clplasma) by the ratio of plasma exposure (AUCplasma) to total blood exposure (AUCBlood), see Eq. (8). AUCBlood was calculated using hematocrit (HCT) to construct total blood exposure contributions from exposure in RBC (AUCRBC) and plasma, see Eq. (9).

[2] = 1 h after 25 mg/kg IP; cited from earlier work
[3] = generally reported, cited from earlier work
[4] = cited from earlier work; for dose proportionality in exposure: single agent
[5] = test system: human liver microsomes (HLMs); conditions: cited from earlier work
[6] = Extensive tissue distribution study in CT26 tumor-bearing mice; type: in vivo, Balb/c mice; conditions: for AUC(0-t): 0-1440 min; for Kp: oral, 75 mg/kg
Description: Mice were injected subcutaneously on the right flank with 1x10^6 CT26 cells, a murine colorectal carcinoma cell line from BALB/c mice,obtained from ATCC (Manassas, VA). Cells were cultured in RPMI-1640 medium with L-glutamine (BioWhittaker Inc., Walkersville, MD), containing 10% heat-inactivated fetal bovine serum and 100 units of penicillin/mL and 100 μg/mL of streptomycin (Biofluids, BioSource, Rockville, MD) in an incubator with 95% air, 5% CO2, and 95% humidity at 37 °C. Cells were verified and checked for mycoplasm by IDEXX BioAnalytics (Westbrook, ME). Implantation and tumor growth were monitored twice weekly with a digital caliper. When tumors were approximately 200 mm^3, mice were stratified into time groups (N=3) primarily using body weight and secondarily using tumor size. Mice were administered 75 mg/kg PO through oral gavage. […] Bone marrow was obtained by flushing both femurs from each mouse with PBS, followed by centrifugation at 12,000 x g and removal of the supernatant. Protein analysis of the resuspended pellet was conducted using the Bio-Rad protein assay following the manufacturer’s instructions with bovine serum albumin as the standard. Blood was processed to obtain plasma and urine and feces were collected as described above.
For tissue and tumor analysis, samples were homogenized with 3 parts PBS (v/g) and further diluted with control plasma and concentrations determined from calibration curves prepared in control plasma.

In the case of C[C@@H]1COCCN1c1cc(C2([S@](C)(=N)=O)CC2)nc(-c2cc[nH]c3nccc2-3)n1 [AZD6738], the ClBlood [1] is reported as 0.550 mL/min, the “Amount excreted, Ae” value ([1]; urine) is reported as 4.00 µg and the “Fraction excreted, Fe” value ([1]; urine) is reported as 0.0191. For the same compound, the clearance ([1]; Balb/c, plasma, average mouse size 18.3 g, read-out: ClPlasma) was 0.634 mL/min, the brain concentration [2] was ~200 ng/mL and the “cell based IC50s” value [3] was “below 413 ng/mL”. The IC50 ([3]; read-out: cell based IC50s) was < 1000 nM, the dose proportionality ([4]; BID with olaparib and durvalumab, 60 to 240 mg) was “dose proportionality” and the “dose limiting toxicity (DLT)” value ([4]; clinical studies) was “thrombocytopenia”. The “concentration at which monocyte and thrombocyte decreases occurred (PK-PD model)” value ([4]; clinical, increased up to 10 μg/mL) was 2500 ng/mL, the “dose proportionality in exposure” value ([4]; 20 to 40 mg BID) was “greater than proportional increases” and the “dose proportionality in exposure” value ([4]; 80 to 240 mg BID) was “approximate dose proportionality”. For the same compound, the “enzymes of oxidative deimination to the primary sulfoxide metabolite” value [5] was “CYP2C8/2J2”, the Cl ([6]; 75 mg/kg PO-ext) was 37.3 mL/min/kg and the Vd ([6]; 75 mg/kg PO-ext) was 5.66 L/kg. The 0-24h urine ([6]; 75 mg/kg PO-ext, unaltered drug) was 3.19 % dose, the 0-24h feces ([6]; 75 mg/kg PO-ext, unchanged drug) was 8.58 % dose and the “AUC0-∞” value ([6]; 75 mg/kg PO, Plasma) was 2,371 (185) μg/mL•min. For the same compound, the Cmax ([6]; 75 mg/kg PO, Plasma) was 14.1 (1.7) μg/mL, the Tmax ([6]; 75 mg/kg PO, Plasma) was 15 min and the AUC(0-t) ([6]; 75 mg/kg PO, Plasma) was 2,371 (185) μg/mL•min. For the same compound, the Kp ([6]; Balb/c, mouse, bone marrow / plasma, 75 mg/kg PO, Bone Marrow to corresponding plasma AUC (0-360), read-out: Partition Coefficient) was 4.6, the Kp ([6]; Balb/c, mouse, brain, 75 mg/kg PO, Brain to corresponding plasma AUC (0-960), read-out: Partition Coefficient) was ~0.05 and the Kp ([6]; Balb/c, mouse, draining lymph node / plasma, 75 mg/kg PO, Draining Lymph Node to plasma AUC, read-out: Partition Coefficient) was 0.792. The Kp ([6]; Balb/c, mouse, esophagus / plasma, 75 mg/kg PO, Esophagus to plasma AUC, read-out: Partition Coefficient) was 3.27, the Kp ([6]; Balb/c, mouse, fat, 75 mg/kg PO, Fat to plasma AUC, read-out: Partition Coefficient) was 0.412 and the Kp ([6]; Balb/c, mouse, kidney / plasma, 75 mg/kg PO, Kidneys to plasma AUC, read-out: Partition Coefficient) was 2.77. The AUC(0-inf) ([6]; Balb/c, mouse, kidney, 75 mg/kg PO, Kidneys) was 109000 ng·h/mL, the AUC(0-t) ([6]; Balb/c, mouse, kidney, 75 mg/kg PO, Kidneys, read-out: AUC0-t (converted)) was 109000 ng·h/mL and the Cmax ([6]; Balb/c, mouse, kidney, 75 mg/kg PO, Kidneys, read-out: Cmax) was 39200 ng/mL. It also gave a Tmax ([6]; Balb/c, mouse, kidney, 75 mg/kg PO, Kidneys, read-out: Tmax (converted)) of 15 min, a Kp ([6]; Balb/c, mouse, liver / plasma, 75 mg/kg PO, Liver to plasma AUC, read-out: Partition Coefficient) of 7.42 and an AUC(0-inf) ([6]; Balb/c, mouse, lung, 75 mg/kg PO, Lungs) of 42100 ng·h/mL. The AUC(0-t) ([6]; Balb/c, mouse, lung, 75 mg/kg PO, Lungs, read-out: AUC0-t (converted)) was 42100 ng·h/mL, the Cmax ([6]; Balb/c, mouse, lung, 75 mg/kg PO, Lungs, read-out: Cmax) was 17400 ng/mL and the Tmax ([6]; Balb/c, mouse, lung, 75 mg/kg PO, Lungs, read-out: Tmax (converted)) was 15 min. The Kp ([6]; Balb/c, mouse, non-draining lymph node / plasma, 75 mg/kg PO, Non-draining Lymph Node to plasma AUC, read-out: Partition Coefficient) was 0.983, the Kp ([6]; Balb/c, mouse, red blood cells (RBC) / plasma, 75 mg/kg PO, RBC to plasma AUC, read-out: Partition Coefficient) was 0.701 and the AUC(0-inf) ([6]; Balb/c, mouse, red blood cells (RBC), 75 mg/kg PO, RBC) was 27700 ng·h/mL. It also gave an AUC(0-t) ([6]; Balb/c, mouse, red blood cells (RBC), 75 mg/kg PO, RBC, read-out: AUC0-t (converted)) of 27700 ng·h/mL, a Cmax ([6]; Balb/c, mouse, red blood cells (RBC), 75 mg/kg PO, RBC, read-out: Cmax) of 13200 ng/mL and a Tmax ([6]; Balb/c, mouse, red blood cells (RBC), 75 mg/kg PO, RBC, read-out: Tmax (converted)) of 15 min. The AUC(0-inf) ([6]; Balb/c, mouse, skeletal muscle, 75 mg/kg PO, Muscle) was 41200 ng·h/mL, the AUC(0-t) ([6]; Balb/c, mouse, skeletal muscle, 75 mg/kg PO, Muscle, read-out: AUC0-t (converted)) was 41200 ng·h/mL and the Cmax ([6]; Balb/c, mouse, skeletal muscle, 75 mg/kg PO, Muscle, read-out: Cmax) was 12500 ng/mL. The Tmax ([6]; Balb/c, mouse, skeletal muscle, 75 mg/kg PO, Muscle, read-out: Tmax (converted)) was 15 min, the Kp ([6]; Balb/c, mouse, small intestine / plasma, 75 mg/kg PO, Small Intestine to plasma AUC, read-out: Partition Coefficient) was 8.39 and the Kp ([6]; Balb/c, mouse, spinal cord, 75 mg/kg PO, Spinal Cord to plasma AUC, read-out: Partition Coefficient) was ~0.05. For the same compound, the Kp ([6]; Balb/c, mouse, spleen / plasma, 75 mg/kg PO, Spleen to plasma AUC, read-out: Partition Coefficient) was 0.891, the Kp ([6]; Balb/c, mouse, thymus / plasma, 75 mg/kg PO, Thymus to plasma AUC, read-out: Partition Coefficient) was 0.652 and the Kp ([6]; Balb/c, mouse, tumor / plasma, 75 mg/kg PO, Tumor to plasma AUC, read-out: Partition Coefficient) was 0.75. For the same compound, the Kp ([6]; Balb/c, mouse, tumor, 75 mg/kg PO, CT26 tumor, read-out: Tumor exposure relative to plasma) was ~0.75, the Cmax ([6]; Balb/c, mouse, 75 mg/kg PO-ext (tissue distribution study), plasma, read-out: Cmax) was 14100 ng/mL and the AUC(0-inf) ([6]; Balb/c, mouse, 75 mg/kg PO-ext, plasma) was 39500 ng·h/mL.
